Measured values: PubChem BioAssay AID651684 (Sanford-Burnham Center for Chemical Genomics, 2012)
Active and inactive are the calls of the source.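 The calls were made as follows: active = any single replicate giving an EC50 below 30 µM; inactive = the rest.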

Tested on: Pro5-aDG cells, alpha-DG glycosylation, IIH6 AlphaLISA
Assay: alpha-DG glycosylation activators, EC50, dose response, Pro5-aDG cells, AlphaLISA (AID 651684)

SMILES	EC50
Cc1cc(Br)ccc1OCCCCNC(C)(C)C	12.2 µM
Brc1ccc2ncnc(NCc3ccccc3)c2c1	3.34 µM
COc1ccc(CN2CCC(C(=O)Nc3ccc(Oc4cccnc4)cc3)CC2)c(C)c1C	8.89 µM
CN1N=C(N)c2cn(C3OC(COP(=O)(O)O)C(O)C3O)c3ncnc1c23 (configuration not stated)	35.1 µM (inactive)
N#Cc1ccsc1NC(=O)c1ccc2ncsc2c1	42.7 µM
O=C(CNC(=O)c1ccccc1Cl)N/N=C/c1ccc([N+](=O)[O-])s1	7.48 µM
Cc1cc(C)n(-c2nc(NCCCN(C)C)c3c4c(sc3n2)CCCC4)n1	16.1 µM
CC(C)N1CCN(c2ccc(OCC3COC(Cn4cncn4)(c4ccc(Cl)cc4Cl)O3)cc2)CC1 (configuration not stated)	9.77 µM
CC1CCCN(CCCNC(=O)c2nn(C)c3c2CSc2ccccc2-3)C1 (configuration not stated)	8.18 µM
Cc1cc(NC2=CC(=O)C(=O)c3ccccc32)no1	6.66 µM
CCCn1c(=N)n(CC(=O)c2ccc(Cl)c(Cl)c2)c2ccccc21	31.2 µM (inactive)
CCc1ccc(C(CNC(=O)c2ccc3c(=O)n(-c4ccccc4F)c(=S)[nH]c3c2)N(C)C)cc1 (configuration not stated)	1.9 µM
CC1CCCN(S(=O)(=O)c2ccc(C(=O)Nc3sc4c(c3C(N)=O)CCN(C)C4)cc2)C1 (configuration not stated)	12.3 µM
CCN(CC)CCn1c(=N)n(CC(=O)c2ccc(C)cc2)c2ccccc21	24.5 µM
CCCCN1CCc2c1nc1ccc(Br)cc1c2N	> 80 µM (inactive)
C=CCn1c(=N)n(CC(=O)c2ccc(Cl)cc2)c2ccccc21	41.6 µM (inactive)
Cc1cccc(CN2CCC(CNC(=O)Nc3ccc(F)c(Cl)c3)CC2)c1	8.57 µM
Cc1ccnc(-n2c(C)nc3ccccc3c2=O)c1	> 80 µM (inactive)
CN(C)CCCNS(=O)(=O)c1ccc(NC2CCCCCC2)c([N+](=O)[O-])c1	6.11 µM
CN1CCN(S(=O)(=O)c2cccc(C(=O)Nc3sccc3C#N)c2)CC1	37.6 µM
CC(C)COc1ccc(CSCCNC(=S)Nc2ccccc2)cc1	6.37 µM

SMILES	EC50
Brc1cccc(-c2nc3c4ccccc4ccn3c2CC2CCCCC2)c1	23.7 µM
N=c1c2c(ncn1CCCO)Oc1c(ccc3ccccc13)C2c1ccccc1 (configuration not stated)	> 80 µM (inactive)
CN1CCN(c2ccc(S(=O)(=O)N3CCCCC3)cc2NC(=O)/C=C/c2ccc(OC(F)F)cc2)CC1	> 80 µM (inactive)
CC(C)Oc1ccc(OCCCN2CCCCCC2)cc1	12.4 µM
CCOC(=O)N/N=C\c1ccc([N+](=O)[O-])s1	12.3 µM
COc1cc(CNCCN(C)C)ccc1OCc1c(F)cccc1Cl	18 µM
Cn1c(=N)n(CC(=O)c2ccc(Br)cc2)c2ccccc21	42.7 µM (inactive)
CC(C)OC(=O)CN1C(=O)C(=O)c2ccccc21	6.56 µM
CCC(c1nnnn1Cc1cccs1)N1CCN(c2nc3ccccc3s2)CC1 (configuration not stated)	22.6 µM
CCOc1ccc(N2CC(C(=O)N3CCN(c4ccccn4)CC3)CC2=O)cc1 (configuration not stated)	11.8 µM
NC(c1csc(Nc2cc(Oc3ccccc3)ncn2)n1)C1CCCCC1 (configuration not stated)	7.32 µM
CC(C)(C)c1ccc(C(=O)Nc2ccc(C(=O)NCc3cccnc3)cc2)cc1	2.48 µM
Cc1cccc(/C=C2/Sc3ccc(C(=O)NCCN4CCCC4)cc3NC2=O)c1	> 80 µM (inactive)
CN1CCN(c2ncnc3c2ncn3[C@H]2CN(Cc3ccc(-c4ccccc4)cc3)C[C@@H](CO)O2)CC1	16.1 µM
COc1ccccc1NC(=O)Nc1nc(C(N)Cc2ccccc2)cs1 (configuration not stated)	> 80 µM (inactive)
N#Cc1ccc(-c2nc3c4ccccc4ccn3c2CC2CCCCC2)cc1	7.97 µM
CCOc1ccc(-n2cc(C(=O)N3CCCCCC3)c3cc(OC)c(OC)cc3c2=O)cc1	5.6 µM
O=C(Nc1cccc2ccccc12)c1ccc([N+](=O)[O-])s1	6.88 µM
COCCNc1nc(NCCOc2ccccc2)c2sc(-c3ccccc3)cc2n1	7.86 µM
CC(C)n1cc(CN2CCCC(C(=O)Nc3cccc(-c4cc5ccccc5[nH]4)c3)C2)cn1 (configuration not stated)	> 80 µM (inactive)
CCCCCNCC(=O)Nc1cccc(C(=O)Nc2cccc(C(F)(F)F)c2)c1	11.6 µM

SMILES	EC50
CCCCCOc1ccc(NC(=O)C(=O)NCC2CCCN2CC)cc1 (configuration not stated)	8.54 µM
Cc1nc(SCC(=O)Nc2cc(C(N)=O)cc(C(N)=O)c2)c2c(C)c(C)sc2n1	28.5 µM
COc1cc2[nH]c3c(=O)n4c(nc3c2cc1OC)SCCC4	6.47 µM
CNc1nc(-c2c[nH]c3ccccc23)cs1	4.99 µM
CCOC(=O)c1cc(-c2ccc(F)cc2)n(CCC(=O)NC2CCN(Cc3ccccc3)CC2)c1C	> 80 µM (inactive)
CCn1c(=N)n(CC(=O)c2ccc(Cl)c(Cl)c2)c2ccccc21	32 µM (inactive)
C/C=C/c1ccc(OCCCNC2CCCC2)c(OC)c1	11.7 µM
N#Cc1ccsc1NC(=O)c1cccc(-n2cnnn2)c1	20.7 µM
CCC(C)Nc1nc(-c2c[nH]c3ccccc23)cs1 (configuration not stated)	4.36 µM
c1ccc2c(-c3cc(C4CCNCC4)[nH]n3)cccc2c1	> 80 µM (inactive)
Cc1cncn1CCc1nc2c3ccccc3nc(SCC(=O)Nc3cccc(Cl)c3)n2n1	> 80 µM (inactive)
CS(=O)(=O)c1ccc(Nc2nc(C(N)Cc3ccc(Cl)cc3)cs2)cc1 (configuration not stated)	8.93 µM
CC(C)c1ccc(NC(=O)C2Cc3c(-c4ccc(Cl)cc4)ccnc3O2)cc1 (configuration not stated)	3.98 µM
O=C(Nc1ccccc1F)c1ccc([N+](=O)[O-])s1	8.89 µM
O=C1C(Cl)=C(NCc2ccco2)C(=O)c2ccccc21	4.97 µM
CCCCCOc1ccc(/C(C)=N/NC2=NCCN2)cc1	5.81 µM
COc1cc(/C=C/C(=O)Nc2nc3ccc(S(=O)(=O)NC(C)C)cc3s2)cc(OC)c1OC	9.21 µM
COc1ccc(Cc2nc(-c3ccc(NC(=O)c4cccnc4)cc3)no2)cc1	1.52 µM
CCCn1c(=N)n(CC(=O)c2ccc(Cl)cc2)c2ccccc21	33.6 µM
c1cncc(-c2nnc(-c3cccnc3)nn2)c1	8.73 µM
CC(=O)Oc1c(Cl)cc(N(C(C)=O)S(=O)(=O)c2ccccc2)c2ccccc12	3.17 µM

SMILES	EC50
Cc1cc(NCc2ccccn2)n2ncc(-c3ccc(Cl)cc3)c2n1	3.48 µM
CCc1nc2ccc(C(=O)NC3CCN(Cc4ccccc4)CC3)cn2c1N(C)Cc1cc2ccccc2s1	6.07 µM
N=c1n(CCN2CCOCC2)c2ccccc2n1CC(=O)c1ccc(Cl)c(Cl)c1	47.1 µM (inactive)
CCc1ccc(C2c3[nH]c4ccccc4c3CCN2C(=O)CN2CCN(CC)CC2)cc1 (configuration not stated)	> 80 µM (inactive)
COCCN1CCC(CNCc2cn(-c3cc(C)ccc3C)nc2-c2ccccc2)C1 (configuration not stated)	> 80 µM (inactive)
CCOc1ccc(NC(=O)c2ccc(F)c(S(=O)(=O)N3CCN(c4ccccn4)CC3)c2)cc1	> 80 µM (inactive)
CCCCN(C)CCNC(=O)c1cc(-c2cccnc2)nc2ccc(S(=O)(=O)N3CCC(C)CC3)cc12	> 80 µM (inactive)
COc1cccc(C(=O)Cn2c(=N)n(C)c3ccccc32)c1	58.4 µM (inactive)
CN(C)CCCNC(=O)/C=C/c1ccc(OCc2c(F)cccc2Cl)cc1	9.37 µM
O=C1C(=O)N(CCS(=O)(=O)c2ccccc2)c2ccc(F)cc21	9.36 µM
O=C(CNC(=O)c1ccccc1)N/N=C/c1ccc([N+](=O)[O-])s1	6.46 µM
CCn1cc(CN2CCC(C(=O)Nc3cccc(-c4cccc(Cl)c4)c3)CC2)c(C)n1	6.99 µM
CC(C)c1ccc(-c2cc(C(=O)N3CCOCC3)c3cc(Br)ccc3n2)cc1	6.31 µM
COc1cc(CNC(=O)Nc2nc(C(N)Cc3ccc(Cl)cc3)cs2)cc(OC)c1OC (configuration not stated)	> 80 µM (inactive)
Cc1ccc(NC(=O)c2ccc([N+](=O)[O-])s2)cc1S(=O)(=O)N1CCOCC1	5.92 µM
Cc1cccc(NC(=S)N(CCCN2CCCC2)Cc2cccn2Cc2ccc(Cl)cc2)c1	> 80 µM (inactive)
CC(=O)c1ccc(N2CCN(C(=O)Nc3ccc(C(C)C)cc3)CC2)cc1	12.8 µM
C/C(=N/NC(=O)C(O)(c1ccccc1)c1ccccc1)c1ccc([N+](=O)[O-])o1	12.7 µM
CCCC[n+]1ccn(C2=C([O-])c3ccccc3C(=O)/C2=N\S(=O)(=O)c2ccc(Br)cc2)c1	6.95 µM
